Assay results reported in US8987445B2, “Sulfonamide compounds having TRPM8 antagonistic activity” (Mitsubishi Tanabe Pharma Corporation, priority 2011, dated 2015).

These compounds were tested against TRPM8 (Rattus norvegicus (Rat), UniProt Q8R455) (assay: In vivo TRPM8 antagonistic assay in rats (menthol-induced wet-dog shakes)). Conditions: SD male rats; 3 mg/kg po 1 hour prior to menthol 50 mg/kg ip; WDS counted for 5 min.
Experimental: The antagonistic activity of compounds was assessed in the “wet-dog” shakes (WDS) model in rats. […] Pretreatment of the rats with a TRPM8 antagonist prior to menthol administration inhibits the observed shaking behavior.
To assess the ability of a TRPM8 antagonist to prevent menthol induced shaking behavior in Sprague Dawley (SD) male rats, test compounds (3 mg/kg, po, in 0.5% methyl cellulose; N=3-4/group) were administered 1 hour prior to menthol challenge (50 mg/kg, ip, in 10% Macrogol 15 Hydroxystearate/saline). Spontaneous WDS were counted for 5 min post menthol dosing. Inhibition of the spontaneous WDS behavior relative to vehicle pretreatment is expressed as percent inhibition, calculated as follows: % Inhibition=[1−(treatment WDS count/vehicle WDS count)]×100.

Chain of TRPM8 (Q8R455 whole entry): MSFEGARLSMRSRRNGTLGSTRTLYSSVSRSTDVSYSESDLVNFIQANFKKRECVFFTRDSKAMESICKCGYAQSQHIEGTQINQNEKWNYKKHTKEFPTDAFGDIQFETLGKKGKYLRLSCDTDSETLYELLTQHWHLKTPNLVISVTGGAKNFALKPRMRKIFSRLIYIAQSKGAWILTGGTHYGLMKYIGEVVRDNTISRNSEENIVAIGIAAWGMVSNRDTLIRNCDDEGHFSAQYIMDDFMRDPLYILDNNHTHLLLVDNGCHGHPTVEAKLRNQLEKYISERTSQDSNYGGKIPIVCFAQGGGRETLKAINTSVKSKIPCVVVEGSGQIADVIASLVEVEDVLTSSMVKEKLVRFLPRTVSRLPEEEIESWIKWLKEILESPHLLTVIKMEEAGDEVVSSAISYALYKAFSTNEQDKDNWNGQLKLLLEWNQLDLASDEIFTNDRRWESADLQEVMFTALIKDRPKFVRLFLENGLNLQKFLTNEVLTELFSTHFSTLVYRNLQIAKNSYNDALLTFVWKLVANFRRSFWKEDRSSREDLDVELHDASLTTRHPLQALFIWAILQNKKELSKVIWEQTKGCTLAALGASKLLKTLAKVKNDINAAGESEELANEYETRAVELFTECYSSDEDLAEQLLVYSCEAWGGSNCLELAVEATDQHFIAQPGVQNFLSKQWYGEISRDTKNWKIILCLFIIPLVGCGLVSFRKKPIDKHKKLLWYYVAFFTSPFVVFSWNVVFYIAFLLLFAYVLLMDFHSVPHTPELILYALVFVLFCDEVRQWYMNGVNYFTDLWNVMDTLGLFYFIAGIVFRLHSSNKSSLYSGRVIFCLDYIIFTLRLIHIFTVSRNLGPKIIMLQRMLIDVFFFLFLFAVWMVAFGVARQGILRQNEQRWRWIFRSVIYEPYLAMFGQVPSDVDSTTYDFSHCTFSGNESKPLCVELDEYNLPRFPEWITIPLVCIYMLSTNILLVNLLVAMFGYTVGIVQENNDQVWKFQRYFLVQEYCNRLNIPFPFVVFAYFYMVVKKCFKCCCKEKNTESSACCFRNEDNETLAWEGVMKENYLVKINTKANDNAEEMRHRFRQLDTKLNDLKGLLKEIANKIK

TRPM8 antagonistic assay (% Inhibition @ 3 mg/kg) [%] | Compound
92.7 | O=C(O)c1ccc(S(=O)(=O)N(Cc2ccc(OC(F)(F)F)cc2)c2ncc3ccccc3c2C(F)(F)F)cc1 [Example 106, 4-({[4-(trifluoromethoxy)benzyl][4-(trifluoromethyl)isoquinolin-3-yl]amino}sulfonyl)benzoic acid]
98.8 | COc1c(N(Cc2ccc(OC(F)(F)F)cc2)S(=O)(=O)c2ccc(C(=O)O)cc2)ncc2ccccc12 [Example 149]
83.5 | O=C(O)c1ccc(S(=O)(=O)N(c2ncc3ccccc3c2C2CC2)C2CCc3cc(OC(F)(F)F)ccc32)cc1 (stereo not drawn) [Example 186]
72.5 | CC(C)c1c(N(Cc2ccc(OC(F)(F)F)cc2)S(=O)(=O)c2ccc(C(=O)O)cc2)ncc2ccccc12 [Example 227]

The compounds below were run against human TRPM8 (Homo sapiens (Human), UniProt Q7Z2W7) (assay: TRPM8 inhibition assay (menthol-induced calcium influx, FDSS)). Conditions: HEK293 cells stably expressing human TRPM8; 100 μM menthol; Fura-2AM Ca2+ signal; read-out: TRPM8 Blocking Test (IC50).
Chain of human TRPM8 (Q7Z2W7 whole entry): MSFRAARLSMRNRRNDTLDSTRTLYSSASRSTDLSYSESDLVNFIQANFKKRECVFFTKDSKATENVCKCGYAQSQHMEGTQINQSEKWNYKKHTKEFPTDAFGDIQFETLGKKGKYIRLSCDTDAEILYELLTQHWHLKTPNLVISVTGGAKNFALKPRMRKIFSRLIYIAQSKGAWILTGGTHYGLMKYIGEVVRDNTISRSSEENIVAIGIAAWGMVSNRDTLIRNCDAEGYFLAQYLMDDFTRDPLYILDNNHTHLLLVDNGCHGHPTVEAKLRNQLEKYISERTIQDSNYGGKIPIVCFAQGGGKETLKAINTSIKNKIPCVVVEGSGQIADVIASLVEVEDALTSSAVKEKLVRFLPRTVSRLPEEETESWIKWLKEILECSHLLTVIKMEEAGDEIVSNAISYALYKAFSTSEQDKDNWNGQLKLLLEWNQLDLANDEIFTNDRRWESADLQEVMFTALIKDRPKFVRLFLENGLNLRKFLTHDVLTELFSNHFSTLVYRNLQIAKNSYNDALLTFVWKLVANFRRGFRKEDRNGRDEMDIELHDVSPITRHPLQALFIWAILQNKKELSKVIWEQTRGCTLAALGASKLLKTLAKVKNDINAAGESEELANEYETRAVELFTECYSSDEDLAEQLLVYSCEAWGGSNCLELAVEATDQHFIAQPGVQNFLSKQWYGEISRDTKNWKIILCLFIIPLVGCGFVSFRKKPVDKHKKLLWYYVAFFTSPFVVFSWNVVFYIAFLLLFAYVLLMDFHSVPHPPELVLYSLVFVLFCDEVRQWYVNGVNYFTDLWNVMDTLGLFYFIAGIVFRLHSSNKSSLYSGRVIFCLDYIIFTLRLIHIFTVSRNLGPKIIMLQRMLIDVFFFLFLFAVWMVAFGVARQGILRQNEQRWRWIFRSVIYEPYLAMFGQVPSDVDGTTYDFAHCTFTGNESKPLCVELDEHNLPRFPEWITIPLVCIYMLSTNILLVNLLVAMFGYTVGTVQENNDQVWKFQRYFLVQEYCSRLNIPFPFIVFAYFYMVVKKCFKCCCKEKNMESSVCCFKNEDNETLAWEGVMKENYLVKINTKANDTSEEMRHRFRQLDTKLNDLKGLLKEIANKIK
Type: cell-based
Experimental: The functional activity of compounds was determined by measuring changes in intracellular calcium concentration using a Ca^2+ sensitive fluorescent dye. The changes in fluorescent signal were monitored by the cell imaging technology by Hamamatsu Photonics's Functional Drug Screening System (FDSS). […] HEK293 cells stably expressing human TRPM8 were grown in flasks. On assay day, the culture medium was removed, and cells were washed with phosphate-buffered saline (PBS) and harvested with PBS containing 2 mM ethylenediaminetetraacetic acid, disodium salt (EDTA, 2Na). […] Subsequently, suspended 20,000 to 50,000 cells per well were incubated with test compound (at varying concentrations) in each well for 20 min at 37° C. Changes in intracellular Ca^2+ evoked by 100 μM menthol were measured for 2 min using FDSS. IC50 vales were determined from four-point concentration-response studies. Curves were generated using the average of quadruplicate wells for each data point.

Compound | IC50 [nM]
O=C(O)c1ccc(S(=O)(=O)N(Cc2ccc(OC(F)(F)F)cc2)c2ncc3ccccc3c2C(F)(F)F)cc1 [Example 106, 4-({[4-(trifluoromethoxy)benzyl][4-(trifluoromethyl)isoquinolin-3-yl]amino}sulfonyl)benzoic acid] | 2
COc1c(N(Cc2ccc(OC(F)(F)F)cc2)S(=O)(=O)c2ccc(C(=O)O)cc2)ncc2ccccc12 [Example 149] | 3.9
O=C(O)c1ccc(S(=O)(=O)N(c2ncc3ccccc3c2C2CC2)C2CCc3cc(OC(F)(F)F)ccc32)cc1 (stereo not drawn) [Example 186] | 4.3
O=C(O)c1ccc(S(=O)(=O)N(Cc2ccc(OC(F)(F)F)cc2)c2cc3ccccc3c(C3CC3)n2)cc1 [Example 216] | 66
O=C(O)c1ccc(S(=O)(=O)N(Cc2ccc(OC(F)(F)F)cc2)c2cc3c(C4CC4)cccc3cn2)cc1 [Example 217] | 239
COCc1nc(N(Cc2ccc(OC(F)(F)F)cc2)S(=O)(=O)c2ccc(C(=O)O)cc2)c(C)c2ccccc12 [Example 218] | 21
COC(C)(c1ccc(CN(c2ncc3ccccc3c2C)S(=O)(=O)c2ccc(C(=O)O)cc2)cc1F)C(F)(F)F (stereo not drawn) [Example 219] | 2.6
CCOC(C)(c1ccc(CN(c2ncc3ccccc3c2C)S(=O)(=O)c2ccc(C(=O)O)cc2)cc1F)C(F)(F)F (stereo not drawn) [Example 220] | 5
COC(C)(c1ccc(CN(c2ncc3ccccc3c2C)S(=O)(=O)c2ccc(C(=O)O)cc2)cc1Cl)C(F)(F)F (stereo not drawn) [Example 222] | 1.6
COC1(C(F)(F)F)CCc2cc(CN(c3ncc4ccccc4c3C)S(=O)(=O)c3ccc(C(=O)O)cc3)ccc21 (stereo not drawn) [Example 223] | 3.5
COC(C)(c1ccc(CN(c2ncc3ccccc3c2C)S(=O)(=O)c2ccc(C(=O)O)cc2)cc1)C(F)(F)C(F)(F)F (stereo not drawn) [Example 224] | 5.9
Cc1c(N(Cc2ccc(OC(F)(F)F)cc2)S(=O)(=O)c2ccc(C(=O)O)cc2)nc(C(C)C)c2ccccc12 [Example 225] | 2.8
Cc1c(N(Cc2ccc(OC(F)(F)F)cc2)S(=O)(=O)c2ccc(C(=O)O)cc2)nc(C2CCCC2)c2ccccc12 [Example 226] | 9.2
CC(C)c1c(N(Cc2ccc(OC(F)(F)F)cc2)S(=O)(=O)c2ccc(C(=O)O)cc2)ncc2ccccc12 [Example 227] | 5.6
CCOc1nc(N(Cc2ccc(OC(F)(F)F)cc2)S(=O)(=O)c2ccc(C(=O)O)cc2)c(C)c2ccccc12 [Example 228] | 7.2
COc1nc(N(Cc2ccc(OC(F)(F)F)cc2)S(=O)(=O)c2ccc(C(=O)O)cc2)c(C)c2cccc(C)c12 [Example 229] | 44
Cc1c(N(Cc2ccc(OC(F)(F)F)cc2)S(=O)(=O)c2ccc(C(=O)O)cc2)ncc2cccc(Cl)c12 [Example 230] | 44
CC(C)c1nc(N(Cc2ccc(OC(F)(F)F)cc2)S(=O)(=O)c2ccc(C(=O)O)cc2)c(C2CC2)c2ccccc12 [Example 231] | 6.9

More lines, now with the values ahead:

IC50 [nM] | Compound
10 | O=C(O)c1ccc(S(=O)(=O)N(Cc2ccc(OC(F)(F)F)cc2)c2nc(C3CC3)c3ccccc3c2C2CC2)cc1 [Example 232]
522 | Cc1c(N(Cc2ccc3[nH]cc(Cl)c3c2)S(=O)(=O)c2ccc(C(=O)O)cc2)ncc2ccccc12 [Example 236]
12 | Cc1c(N(Cc2ccc3c(c2)c(Cl)cn3C)S(=O)(=O)c2ccc(C(=O)O)cc2)ncc2ccccc12 [Example 237]
103 | CNC(=O)c1ccc(S(=O)(=O)N(Cc2ccc(OC(F)(F)F)cc2)c2ncc3ccccc3c2C)cc1 [Example 238]
14 | Cc1c(N(Cc2ccc(OC(F)(F)F)cc2)S(=O)(=O)c2ccc(C(=O)NC#N)cc2)ncc2ccccc12 [Example 239]
18 | CCONC(=O)c1ccc(S(=O)(=O)N(Cc2ccc(OC(F)(F)F)cc2)c2ncc3ccccc3c2C)cc1 [Example 240]
8.5 | NC(=O)c1ccc(S(=O)(=O)N(Cc2ccc(OC(F)(F)F)cc2)c2ncc3ccccc3c2C2CC2)cc1 [Example 241]
10 | NC(=O)c1ccc(S(=O)(=O)N(Cc2ccc(OC(F)(F)F)cc2)c2ncc3ccccc3c2C(F)(F)F)cc1 [Example 242]
